Calls of active or inactive are those of the source. Starred links: 1 amine or outer side, 2 acyl side, 3 side chain; linkers in the order of their positions; H or OH if unused. Positions of bridges follow the written chain, without caps; N, C: chain ends. Non-standard residues stand in square brackets, D forms with d. Residues, ends and D or L forms follow the SMILES beside them. Chains are numbered I, II in the order given. Actinocin(1to9) = Cc1c2oc3c(C)ccc(C(=O)[*:2])c3nc-2c(C(=O)[*:1])c(N)c1=O; aThr = C[C@H](O)[C@H](N)C(=O)O; NMeV = CN[C@H](C(=O)O)C(C)C; Sar = CNCC(=O)O
Columns and labels:
[1] = biological target: Luciferin 4-monooxygenase (Photinus pyralis, UniProt P08659); assay: firefly luciferase enzyme inhibitors, dose response, biochemical, luminescence (AID 1891)
[2] = Luminescence Cell-Based Dose Confirmation HTS to Identify Inhibitors of Platelet Dense Granule Release. [Related pubchem assays: 1663 (Primary HTS), 1678 (Summary of Project)]; type: functional
[3] = microbe, parasite or virus in culture; type: functional; settings: Mycobacterium tuberculosis
[4] = HEp-2 cell cytotoxicity, dose response, cytotoxicity control for RSV inhibitor project, HTS (AID 2410); type: functional; settings: human respiratory syncytial virus
[5] = inhibitors of clade B AD8 Env fusion, dose response, cell-based, cherry-pick (AID 652062); type: functional;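 also: luciferase signal from cell-cell fusion driven by HIV-1 clade B AD8 Env; potency is for inhibitors of fusion seen as a drop in luminescence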
P388/ADR = assay: cells; type: functional
SN12K1 = assay: cells; type: functional
P388 = assay: cells; type: functional
[6] = inhibitors of HIV Env-driven cell fusion, dose response, cherry-pick (AID 652057); type: functional, cell-based
[7] = NIH-3T3 fibroblast cytotoxicity, dose response, cytotoxicity control, cell-based, fluorescence, Alamar Blue, secondary assay (AID 2327); type: functional;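 also: NIH-3T3 mouse fibroblasts cultured with fluconazole at 8 µg/mL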
[8] = C. albicans growth with fluconazole, confirmation, fluorescence, retest (AID 2467); type: functional, cell-based
[9] = system: Streptococcus sp. 'group A'; assay: growth inhibition of control SK(-) GAS strain, dose response, counter-screen for streptokinase expression inhibitor project, luminescence, kanamycin, BacTiterGlo, confirmation (AID 1900); type: functional, organism-based
Streptokinase A = biological target: T1, Streptokinase A (Streptococcus pyogenes serotype M1, UniProt P10520); assay: S. pyogenes streptokinase expression inhibitors, potency, dose response, plasminogen activation absorbance, OD405 (AID 1914); type: functional, Streptococcus pyogenes M1 GAS;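 also: secreted streptokinase activity via plasminogen activation per viability signal from cell pellet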
T1 sequence (P10520 whole entry): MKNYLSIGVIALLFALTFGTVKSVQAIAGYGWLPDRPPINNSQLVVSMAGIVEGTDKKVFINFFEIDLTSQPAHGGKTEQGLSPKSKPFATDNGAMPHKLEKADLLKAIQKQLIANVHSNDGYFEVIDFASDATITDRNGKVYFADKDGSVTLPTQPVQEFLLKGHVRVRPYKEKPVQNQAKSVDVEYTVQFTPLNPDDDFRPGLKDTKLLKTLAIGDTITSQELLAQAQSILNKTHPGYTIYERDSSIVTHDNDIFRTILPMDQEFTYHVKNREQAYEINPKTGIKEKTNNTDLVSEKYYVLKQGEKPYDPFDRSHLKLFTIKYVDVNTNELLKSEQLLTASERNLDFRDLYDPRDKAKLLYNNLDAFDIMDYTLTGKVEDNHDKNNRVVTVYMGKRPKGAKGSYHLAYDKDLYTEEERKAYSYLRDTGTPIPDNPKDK

Streptococcus = assay: Group A Streptococcus viability loss, dose response, counter-screen for streptokinase expression inhibitor project, luminescence, BacTiterGlo (AID 1915); type: functional, organism-based;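 also: potency for reduction of bacterial viability or growth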

Luciferin 4-monooxygenase, sequence (P08659 whole entry): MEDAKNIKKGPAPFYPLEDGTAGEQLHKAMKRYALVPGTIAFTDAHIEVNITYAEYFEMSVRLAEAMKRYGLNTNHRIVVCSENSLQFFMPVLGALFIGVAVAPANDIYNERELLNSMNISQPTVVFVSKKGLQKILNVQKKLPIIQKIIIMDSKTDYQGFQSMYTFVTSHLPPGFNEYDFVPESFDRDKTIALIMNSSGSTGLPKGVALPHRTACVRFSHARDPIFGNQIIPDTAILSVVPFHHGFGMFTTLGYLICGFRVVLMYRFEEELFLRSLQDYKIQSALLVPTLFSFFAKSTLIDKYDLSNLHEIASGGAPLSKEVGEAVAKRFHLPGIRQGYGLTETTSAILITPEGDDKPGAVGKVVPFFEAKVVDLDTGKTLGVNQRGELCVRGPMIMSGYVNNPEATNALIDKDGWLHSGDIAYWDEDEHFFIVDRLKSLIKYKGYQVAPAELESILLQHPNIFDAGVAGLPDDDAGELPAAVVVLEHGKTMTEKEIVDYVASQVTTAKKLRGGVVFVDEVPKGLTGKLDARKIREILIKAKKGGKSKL

Structure (SMILES)	GI50 (P388/ADR; Mus musculus, P388/ADR)	GI50 (SN12K1; Homo sapiens, SN12K1)	GI50 (P388; Mus musculus, P388)	also measured
CC(C)c1ccc(C(=O)OC2CCOC2=O)cc1 (configuration not stated)				EC50 [1]: > 112 µM (not active); EC50 [2]: > 112 µM (not active)
CSc1ccccc1OCc1cc(C(=O)N2CCC(Oc3cccnc3)CC2)no1				CC50 [3]: > 40 µM (active)
COc1ccc(CCNC(=O)c2cc3sc(Cl)cc3n2C)cc1OC				CC50 [4]: 27.5 µM (active)
CCc1cc(=O)oc2cc(C)cc(OCC(=O)NCc3cccnc3)c12				EC50 [1]: > 112 µM (not active); EC50 [2]: > 112 µM (not active)
COc1ccc(C(O)c2nc3ccccc3n2C)cc1OC (configuration not stated)				AC50 [5]: 3.4 µM (active)
CCCCNC(=O)c1cccc(S(=O)(=O)N2CC3(C)CC2CC(C)(C)C3)c1 (configuration not stated)				CC50 [4]: 26.5 µM (active)
O=C(O)CCC(NC(=O)c1ccc(Nc2nc3cc(C(F)(F)F)ccc3nc2-c2ccccc2)cc1)C(=O)O (configuration not stated)	38.5 µM (inactive)	48.2 µM (inactive)	26.5 µM (inactive)	
CCOC(=O)c1c(C)c2c(n1C)CCc1c[nH]nc1-2	> 31.6 µM (inactive)	> 100 µM (inactive)	> 100 µM (inactive)	
COc1cc2c(cc1OC)C(C(c1ccccc1)c1ccccc1)N(C)CC2 (configuration not stated)	41.6 µM (inactive)	32.6 µM (inactive)	24.5 µM (inactive)	
C[C@H]1CN([C@@H](C)CO)C(=O)c2ccccc2-c2ccccc2CO[C@@H]1CN(C)C(=O)Nc1cccc(C(F)(F)F)c1				AC50 [6]: < 0.26 µM (active); AC50 [5]: 19 µM (active)
Oc1c(Cl)cccc1/C=N/c1cc(C(F)(F)F)ccc1N1CCCC1				EC50 [1]: > 112 µM (not active); EC50 [2]: > 112 µM (not active)
C/C(=N\NC(=O)C1CCCC1)c1ccc(Cl)c(Cl)c1				EC50 [7]: > 150 µM (inactive); EC50 [8]: > 38 µM (not active)
COC(C(=O)C(O)C(C)O)C1Cc2cc3cc(OC4CC(OC(C)=O)C(OC5CC(O)C(OC)C(C)O5)C(C)O4)cc(O)c3c(O)c2C(=O)C1OC1CC(OC2CC(OC3CC(C)(O)C(OC(=O)C(C)C)C(C)O3)C(O)C(C)O2)C(O)C(C)O1 (configuration not stated)	5.98 µM (inactive)	0.01 µM (active)	0.0123 µM (active)	GI50 (P388/ADR): 5.12 µM (inactive); GI50 (SN12K1): 0.00895 µM (active); GI50 (P388): 0.0075 µM (active)
O=C1C=C2SC3C[C@@]24CC1[N+]1=c2c4c(c(O)c4c2=C(C=N4)CC1)N3	6.35 µM (inactive)	1.94 µM (inactive)	1.83 µM (inactive)	
OCC1OC(n2cnc3c(NC4CCCC4)ncnc32)C(O)C1O (configuration not stated)				EC50 [1]: > 112 µM (not active); EC50 [2]: 1.09 µM (active)
CCOC(=O)c1c(N)sc(-c2ccccc2)c1C				CC50 [4]: 28.5 µM (active)
Cc1c2oc3c(C)ccc(C(=O)N[C@@H]4C(=O)N[C@H](C(C)C)C(=O)N5CCC[C@H]5C(=O)N(C)CC(=O)N(C)[C@@H](C(C)C)C(=O)O[C@H]4C)c3nc-2c(C(=O)N[C@@H]2C(=O)N[C@H](C(C)C)C(=O)N3CCC[C@H]3C(=O)N(C)CC(=O)N(C)[C@@H](C(C)C)C(=O)O[C@H]2C)c(N)c1=O (I: [aThr][dV]P[Sar][NMeV] / II: [aThr][dV]P[Sar][NMeV]; ester I:1-I:C, II:1-II:C; linker I:N-II:N via Actinocin(1to9))	0.00442 µM (active)	0.000337 µM (active)	0.00025 µM (active)	
CC12CCC(CC1)C(C)(C)O2 [EUCALYPTOL]	8.17 µM (inactive)	21.9 µM (inactive)	9.1 µM (inactive)	EC50 [9]: > 150 µM (not active); EC50 (Streptokinase A): > 150 µM (not active); EC50 (Streptococcus): > 150 µM (not active)
NC1=NC(=O)/C(=C2\CCNC(=O)c3[nH]c(Br)cc32)N1 [HYMENIALDISINE]	7.28 µM (inactive)	12.3 µM (inactive)	3.97 µM (inactive)	

Reference: ChEMBL document CHEMBL1201862, “PubChem BioAssay data set” (2004)
